Measurements as given in patent US20030125287A1, “Antisense oligonucleotides and methods to induce tumor cell death” (Hybridon, Inc., priority 2001, published 2003).
Entries after “also recorded” stand apart in the source; their conditions may differ. Oligonucleotides are written 5' to 3', each unit as a sugar letter and its base; * is a phosphorothioate linkage, no mark a phosphodiester; rarer units and linkages stand in square brackets, end groups in braces. Plain capitals give the bases only. d = 2'-deoxy (DNA)

Key:
Type in all cases: cell-based, human
survivin = test: Western blot of survivin protein in antisense oligonucleotide-treated MSN cells; settings: for effect on survivin protein levels / percentage of survivin protein over β-tubulin relative to lipofectin: lipofectin; for effect on survivin protein levels: 48 hours; for decrease in survivin protein levels relative to lipofectin-treated control, normalized to β-tubulin / percentage of survivin protein over β-tubulin relative to lipofectin: 400 nM, 48 hours (FIG. 3A)
Method: Six survivin (900-906) antisense oligonucleotides were administered at 400 nM to MSN cells in the presence of lipofectin for 48 hours. Each lane has 100 μg of protein. The blots were cut at 32.9 kD and the bottom incubated with the survivin polyclonal antibody (1:500), while the top was incubated with β-tubulin.
Since survivin antisense oligonucleotide 903 decreased survivin protein levels by 76%, the dose dependency of 903 on survivin protein levels was further studied. As expected, mismatched oligonucleotides had no effect on the relative abundance of survivin. […] In the presence of lipofectin, survivin antisense oligonucleotide 903 was administered to MSN cells for 48 hours at 50 nM to 200 nM. Total protein (100 μg) was loaded/lane.
Survivin antisense oligonucleotide 904 decreased survivin protein levels by 46% and 60% while survivin levels were unchanged in cells incubated with the mismatched oligonucleotide 1132. MSN cells were treated with lipofectin, survivin antisense oligonucleotide 904 or 908 at 400 nM and 600 nM, or mismatched oligonucleotide 1132 at 400 nM concentrations. Total protein (100 μg) was separated by SDS polyacrylamide gel electrophoresis and transferred to a nitrocellulose support. The blots were cut at 32.9 kD and the bottom blots incubated with the survivin polyclonal antibody (1:500), while the top blots were incubated with tubulin.
The antisense oligonucleotides were synthesized on solid support with an automated DNA synthesizer using β-cyanoethylphosphoramidite chemistry. In order to prevent rapid degradation of the antisense oligonucleotides by cellular nucleases, oxidation was carried out with Becauge sulfurizing agent to obtain phosphorothioate backbone modified oligonucleotides. After their synthesis, the oligonucleotides were released from the solid support, deprotected, purified by reverse-phase HPLC, desalted, filtered and lyophilized. The purity and sequence integrity of oligonucleotides was ascertained by capillary gel electrophoresis and MALDI-TOF mass spectral analysis and the concentrations measured at […]. Cells were grown in 100 mm dishes and oligonucleotide treatment was performed on subconfluent cultures in the presence of Lipofectin (GIBCO) according to the manufacturer. Forty-eight hours following treatment, total protein homogenates were isolated.
Ten micrograms of the fusion protein was incubated with the survivin antibody (1:500) at 4° C. for 2 hours to overnight prior to immunoblotting. […] Blots were cut at 32.9 kD, and the bottom part of the blots were incubated with the survivin antibody overnight at 4° C. and visualized by enhanced chemiluminescence (Enhanced Chemiluminescence, Amersham, Arlington Heights, Ill.) as previously described (Sharma et al. Cell. Motil. Cytoskeleton 27:234-247).

[1] = system: apoptosis-inducing factor (AIF); test: AIF immunostaining and DAPI double-labeling of MSN cells; settings: for AIF localization: 600 nM (FIGS. 9H-9K)
Method: To examine whether down-regulation of survivin induces AIF nuclear translocation, AIF and DAPI double-labeling was performed on MSN cells treated with lipofectin (FIG. 9H), or 600 nM survivin antisense oligonucleotide 904 (FIG. 9I), mismatch oligonucleotide 1132 (FIG. 9J), or survivin antisense oligonucleotide 906 (FIG. 9K).
Lipofectin, mismatch oligonucleotide 1132 or survivin antisense oligonucleotide-treated MSN cells were fixed and permeabilized as described for PI staining, and blocked for 1 h at room temperature with 10% normal goat serum in 5% non-fat, dry milk in 1×TBS. […] Omission of the primary antibody confirmed that the immunostaining was specific. Cells were counterstained with the DNA-specific dye DAPI (1:1000 of a 1 mg/ml stock; 15 min at room temperature). Cells were examined with an Olympus 1×70 inverted microscope. Fluorescent images were collected using a 12-bit Photometrics cooled CCD camera. For each treatment, 15 random, 40×objective fields consisting of about 600 cells were examined. TRITC (red) and DAPI (blue) stained cells were scored as having AIF staining either in the mitochondria or the nucleus relative to the total number examined. In parallel, the DAPI stained nuclei were also scored as normal, condensed, or abnormal nuclei. Experiments were performed in duplicate.

MSN cells = test: Propidium iodide staining, nuclear morphology of MSN cells; settings: for nuclear morphology by PI staining: 600 nM (FIG. 9); for percentage of cells with abnormal nuclear morphology by PI staining: 600 nM alone (FIG. 9G)
Method: Propidium iodide (PI) staining and phase microscopy were used to assess the nuclear morphology of the survivin antisense oligonucleotide-treated MSN cells. MSN cells were treated with lipofectin (FIG. 9A), or 600 nM mismatch oligonucleotide 1132 (FIG. 9B) or survivin antisense oligonucleotide 904 (FIGS. 9C and 9E) or 906 (FIG. 9D), and stained with PI. To assess the effect on nuclear morphology of co-administration of survivin antisense oligonucleotide and the caspases inhibitor zVAD-fmk, MSN cells were treated with 600 nM survivin antisense oligonucleotide 904, 906, or mismatch oligonucleotide 1132 alone, or in the presence of 20 μM zVAD-fmk, and stained with PI (FIG. 9G).
Survivin antisense oligonucleotide-treated cells were fixed with 4% paraformaldehyde for 30 min at room temperature, washed with 1×TBS, permeabilized with 0.1% Triton X-100 for 30 min and treated with 10 μg/ml DNasc free RNase A (Sigma) for 60 min. Nuclei were stained with 200 μg /ml PI for 30 min at 4° C. and washed twice with 1×TBS. Nuclear morphology was assessed on an inverted Olympus 1×70 fluorescence microscope equipped with phase and epifluorescence optics. For each treatment about 600 nuclei were scored as normal, condensed (apoptotic), or abnormal (macronuclei, multilobed) on 15 random, 40×objective fields in duplicate. Quantification results are mean±SEM obtained from two independent experiments performed in duplicate.

| Substance | effect on survivin protein levels (survivin) | percentage of cells with normal-appearing nuclei by DAPI staining ([1]; 600 nM) | percentage of cells with nuclear localization / translocation of AIF ([1]; 600 nM) | AIF localization [1] | nuclear morphology by PI staining (MSN cells) | decrease in survivin protein levels relative to lipofectin-treated control, normalized to β-tubulin (survivin) | percentage of survivin protein over β-tubulin relative to lipofectin (survivin) | percentage of cells with abnormal nuclear morphology by PI staining (MSN cells) | decrease in survivin protein levels (survivin; 400 nM (FIG. 4C)) | decrease in survivin protein levels (survivin; 600 nM (FIG. 4C)) |
| --- | --- | --- | --- | --- | --- | --- | --- | --- | --- | --- |
| d(GCACCTAGTCTCCCTGCACC) (DNA, all phosphorothioate, methylation of C not given here) [Oligo 1132, mismatched phosphorothioate control oligonucleotide, not complementary to survivin mRNA, reference compound] | had no effect; also recorded: did not alter survivin protein levels | 95% | 4-8% | robust AIF staining in the cytosol | normal nuclear morphology | – | – | – | – | – |
| d(GCTTCCCAGTCACATCCTGT) (antisense dG*dC*dT*dT*dC*dC*dC*dA*dG*dT*dC*dA*dC*dA*dT*dC*dC*dT*dG*dT) [Oligo 906, 20-mer phosphorothioate survivin antisense oligonucleotide, complementary to survivin mRNA 11897-11916] | – | – | – | nuclear translocation of AIF | abnormal multiple multilobed nuclei | 73% | 26.9% | 31% | – | – |
| d(TCTTGGCTCTTTCTCTGTCC) (antisense dT*dC*dT*dT*dG*dG*dC*dT*dC*dT*dT*dT*dC*dT*dC*dT*dG*dT*dC*dC) [Oligo 904, 20-mer phosphorothioate survivin antisense oligonucleotide, complementary to survivin mRNA 5248-5267] | effective in reducing survivin protein levels in a concentration-dependent manner | – | – | nuclear translocation of AIF | abnormal multiple multilobed nuclei | 64% | 35.7% | 27% | 46% | 60% |
